What was measured:
TNFα = TNFα ELISA in LPS-activated primary mouse peritoneal macrophages; format: cell-based; conditions: LPS 100 ng/mL; NDX1 and NDX2 0.01, 0.1, 1 mM; NAG 0.1 and 1 mM; n=8
Experimental: • 1. Non treatment (NT) • 2. LPS 100 ng/mL • 3. LPS 100 ng/mL+NDX1 dose1* • 4. LPS 100 ng/mL+NDX1 dose2* • 5. LPS 100 ng/mL+NDX1 dose3* • 6. LPS 100 ng/mL+NDX2 dose1 • 7. LPS 100 ng/mL+NDX2 dose2 • 8. LPS 100 ng/mL+NDX2 dose3 • 9. LPS 100 ng/mL+NAG dose2 • 10. LPS 100 ng/mL+NAG dose3 (*dose 1, 2, 3 were selected as low, middle and high dose with no cytotoxicity from the cytotoxic assay)
The peritoneal macrophages were isolated from peritoneal cavity, and cultured in Dulbecco's modified Eagle's medium (DMEM, Gibco BRL, Gaithersburg, MD) supplemented with 10% fetal bovine serum (FBS) (Hyclone Laboratories, Logan, VT) and 100 IU/mL penicillin G and 100 µg/mL streptomycin, in a humidified atmosphere of 5% carbon dioxide at 37° C. Cells will grow on a 96-well plate and co-treated with 100 ng/ml LPS (Sigma-Aldrich) 0.5 hours after addition of BNAGs and NAG. Twenty-four hours later, the cell number was counted by using the WST-1 kit (Fisher Scientific). After removal of the supernatant, […] new medium was added into each cell. […] Each sample was determined at 450 nm on a microplate reader.
The amounts of IL-6 and TNFα were measured by a commercial ELISA kit (Sigma-Aldrich), following the instructions provided by the manufacturer. […] The resultant solutions were read at 450 nm on a microplate reader.

IL-6 = IL-6 ELISA in LPS-activated RAW264.7 macrophages; format: cell-based, mouse; conditions: LPS 100 ng/mL, concentrations up to 5 mM, n=8
Experimental: (§1) Mouse RAW264.7 macrophage cell line (ATCC; Manassas, VA, USA) was maintained in DMEM culture medium containing 10% FBS and 1% antibiotic mix. For cell treatment, the test drugs at different doses were added to the culture 0.5 h prior to addition of 100 ng/mL LPS (Sigma-Aldrich Co., St Louis, MO, USA) and then cells were co-treated with LPS for 24 hours.
The amounts of IL-6 in culture medium from different treatments were measured by a commercial ELISA kit (Sigma-Aldrich), following the instructions provided by the manufacturer. Briefly, cells were seeded on a 96-well plate and various treatments were performed. The culture medium were collected and mixed with different assay reagents step by step. The resultant solutions were read at 450 nm on a microplate reader. There were eight repeats in each group (n=8). *P<0.05 vs LPS group. The experiment was duplicated.

nitric oxide = assay: Griess nitrite production assay in LPS-activated RAW264.7 macrophages; format: cell-based, mouse; conditions: LPS 100 ng/mL; NDX1 0.2, 1 and 5 mM, NDX2 0.5 and 5 mM, NAG 0.5-5 mM; n=6
Experimental: as §1
The Griess reagent system is based on the chemical reaction which uses sulfanilamide and N-1-napthylethylenediamine dihydrochloride (NED) under acidic (phosphoric acid) conditions. This system detects nitrite production. In the present experiments, nitric oxide detection was performed by a commercial kit (Promega Corporation, Madison, WI, USA), according to the manufacturer's manual. Briefly, all experimental samples and standards containing the dilution series for the nitrite standard reference curve were mixed with 50 μL of the sulfanilamide solution and incubated 10 mins at room temperature without light in a 96-well plate. Then 50 μL of the NED Solution was added to each well and incubated 10 mins at room temperature without light. The optical density (OD) was determined at 530 nm on a microplate reader within 30 mins. No LPS and the other drugs were added in the non-treatment group (NT). The experiment was duplicated. There were six repeats in each group (n=6). […].

TNFa = assay: Serum TNFa ELISA in LPS-induced systemic inflammation in mice; format: in vivo, mouse; conditions: LPS 10 mg/kg I.P., compound 300 mg/kg I.V.
Experimental: Male C57BL6/J mice (8 to 10-week-old, 20-25 g) purchased from Charles River were used in this study. Mice were kept in the animal facility of the School of Medicine, University of Virginia (UVa). All experimental procedures were approved by the Ethics Committee on Animal Research of Medical School, UVa and are in accordance with the Guidelines of the National Council for Animal Experimentation Control (CONCEA).
Moderate endotoxemia by LPS was induced with a single dose (10 mg/Kg, i.p.) of LPS (Escherichia coli 0111:B4, Sigma Chemical Co., St. Louis, MO, United States), 30 min after intravenous injection of NAG or NDX1 or NDX2 or the vehicle (saline). Two doses (200 mg/kg body weight and 300 mg/kg body weight) were tested for NAG, NDX1 and NDX2. Animals without any treatment were used to obtain the baseline data. Six hours after LPS treatment, inflammation assays were performed as described below. A total of 40 animals were randomly divided into 5 groups (8 mice/group): non-treatment (NT); 10 mg/Kg LPS plus saline (LPS); 10 mg/Kg LPS plus NAG (LPS+NAG); 10 mg/Kg LPS plus NDX1 (LPS+NDX1); and 10 mg/Kg LPS plus NDX2 (LPS+NDX2). The experiment was duplicated.
TNFa and IL-6 concentrations in the serum were determined using enzyme-linked immunosorbent assay (ELISA) according to the manufacturer's instructions. […] The resultant solutions were read at 450 nm on a microplate reader.

CC(=O)N[C@H]1C(O)O[C@H](CO)[C@@H](O)[C@@H]1O (stereo partly shown) [NAG, N-acetyl glucosamine]
reduction of TNFa production (ELISA) (TNFα): could significantly reduce IL-6 and TNFa production | reduction of IL-6 production (ELISA) (IL-6): could significantly reduce IL-6 production | inhibition of nitric oxide (nitrite) production (nitric oxide): couldn't | decrease of serum level of TNFa (TNFa): significantly decrease serum levels
